4 compounds from BindingDB's records for PubMed 38266553 (China Pharmaceutical University) can be followed below.

Assay [1] addresses Prostaglandin G/H synthase 2 (Homo sapiens) (UniProt P35354). Put plainly: Inhibition of COX-2 (unknown origin) using arachidonic acid as substrate preincubated for 10 mins followed by substrate addition and measured after 5 mins by fluorescence based analysis.
Assay [2] concerns the target Prostaglandin G/H synthase 1 (Homo sapiens) (UniProt P23219). As to the kind of experiment: Inhibition of COX-1 (unknown origin) using arachidonic acid as substrate preincubated for 10 mins followed by substrate addition and measured after 5 mins by fluorescence based analysis.

Sequence of Prostaglandin G/H synthase 2 (Homo sapiens) (P35354 whole entry, looked up): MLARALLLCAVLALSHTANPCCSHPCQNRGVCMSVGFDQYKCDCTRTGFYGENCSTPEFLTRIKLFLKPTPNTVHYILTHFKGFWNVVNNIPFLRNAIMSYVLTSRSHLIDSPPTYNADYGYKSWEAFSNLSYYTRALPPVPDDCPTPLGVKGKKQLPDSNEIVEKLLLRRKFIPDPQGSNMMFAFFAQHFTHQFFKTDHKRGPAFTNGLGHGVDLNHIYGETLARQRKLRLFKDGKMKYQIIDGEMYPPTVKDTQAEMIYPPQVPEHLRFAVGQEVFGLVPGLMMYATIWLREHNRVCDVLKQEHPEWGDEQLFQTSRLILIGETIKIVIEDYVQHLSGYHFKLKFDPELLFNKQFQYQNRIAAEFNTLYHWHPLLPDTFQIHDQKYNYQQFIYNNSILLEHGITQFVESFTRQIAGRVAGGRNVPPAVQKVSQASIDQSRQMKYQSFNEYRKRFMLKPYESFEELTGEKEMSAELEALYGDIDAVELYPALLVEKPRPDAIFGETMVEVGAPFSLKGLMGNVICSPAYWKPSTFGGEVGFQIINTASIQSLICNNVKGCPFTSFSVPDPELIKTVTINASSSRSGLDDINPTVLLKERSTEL

In general, IC50 refers to the concentration that gives 50% inhibition. A lower IC50 goes with inhibition by little substance. For `CC(C)(C)c1nn(-c2ccccc2)c(O)c1Cc1ccc(C(=O)NO)cc1`, the half-inhibitory concentration (IC50) is 144 nM in assay [1] and 1290 nM in assay [2].
In the case of `CCc1nn(-c2ccccc2)c(O)c1Cc1ccc(C(=O)NO)cc1`, the 50% inhibitory concentration (IC50) in assay [1] was determined as 134 nM; in assay [2], 321 nM.
With `Cc1nn(-c2cccc(Cl)c2)c(O)c1Cc1ccc(C(=O)NO)cc1`, the half-inhibitory concentration (IC50) in assay [1] was determined as 58 nM; in assay [2], 1360 nM.
In the case of `Cc1[nH]n(-c2ccccc2)c(=O)c1Cc1ccc(C(=O)NO)cc1`, the 50% inhibitory concentration (IC50) in assay [1] is 75 nM; in assay [2] it was 5730 nM.
